US9273011B2, “Substituted pyridazines for the treatment of pain” (INHIBITAXIN LIMITED, priority 2011, dated 2016)

Each molecule was assayed against human Autotaxin enzyme (Homo sapiens (Human), UniProt Q13822) (assay: Autotaxin FS-3 assay). Details: Autotaxin FS3 assay; human Autotaxin enzyme 2 nM; inhibition of FS-3 fluorescence; range and n in brackets.
Assay type: biochemical
Text: Autotaxin (ATX) converts Lysophosphatidyl choline (LPC) to Lysophosphatidic acid (LPA) via its Lysophosphodiesterase (lysoPLD) activity. FS-3 is an LPC analogue that is conjugated with both a fluorophore and a quencher. In its native state the quencher interferes with the fluorophore's fluorescence. Once autotaxin cleaves FS-3, the fluorophore becomes liberated from the quencher, resulting in increased fluorescence. Thus increase in fluorescence is a measure of ATX activity. Any compound that inhibits the activity of Autotaxin will show less fluorescence read in presence of FS-3, which could be measured by fluorimetric analysis. See U.S. Pat. No. 7,989,663.
Autotaxin Inhibitor Screening Kits are available from Echelon Biosciences, Logan, Utah, USA [http://echelon-inc.com/, accessed 6 Oct. 2011]. Using the methods of Gierse et al [“A novel autotaxin inhibitor reduces lysophosphatidic acid levels in plasma and the site of inflammation”, Journal of Pharmacology and Experimental Therapeutics, vol 334(1), 310-317 (2010), see in particular page 312 lines 4-14], the potency of the compounds of the invention as inhibitors of human autotaxin enzyme may be measured (as IC50 values).
The FS-3 assay to identify ATX inhibitors was preformed as follows: 3 μl of standard inhibitor (referred to as PF-8380 in Gierse et al above) and test compounds were added to an assay plate. To each assay well, containing test compounds or standard, 24 μl of human Autotaxin enzyme (2 nM) was added. The assay plate was then centrifuged at 1000 rpm for 1 minute and allowed to incubate at 37° C. for 30 minutes. Following the incubation period each plate was read in a fluorescence plate reader (Spectra Max M5: excitation: 494 nm and emission: 520 nm) and IC50 values were derived from inhibition of FS-3 fluorescence (as described above).
With COc1ccc(C(CCO)Nc2ccc(C(=O)NCc3cc(F)ccc3F)nn2)cc1 (centres unmarked) [Example 1, N-(2,5-difluorobenzyl)-6-{[3-hydroxy-1-(4-methoxy-phenyl)propyl]amino}pyridazine-3-carboxamide] the IC50 was 14 nM.
With COc1ccc(C(CCO)Nc2ccc(C(=O)NCc3cc(F)cc(F)c3)nn2)cc1 (centres unmarked) [Example 2, N-(3,5-difluorobenzyl)-6-{[3-hydroxy-1-(4-methoxy-phenyl)propyl]amino}pyridazine-3-carboxamide] the IC50 was 24.9 nM.
With Cc1noc(NC(=O)c2ccc(NC(CO)Cc3ccc(Cl)cc3)nn2)c1C (centres unmarked) [Example 3, 6-{[1-(4-chlorobenzyl)-2-hydroxyethyl]amino}-N-(3,4-dimethylisoxazol-5-yl)pyridazine-3-carboxamide] the IC50 was 37.6 nM.
For CCN(Cc1ccncc1)c1ccc(C(=O)Nc2cc(-c3ccccc3)nn2C)nn1 [Example 4, 6-[ethyl(pyridin-4-ylmethyl)amino]-N-(1-methyl-3-phenyl-1H-pyrazol-5-yl)pyrid azine-3-carboxamide], the IC50 was 65.2 nM.
In the case of COc1ccc(C(CCO)Nc2ccc(C(=O)Nc3onc(C)c3C)nn2)cc1 (centres unmarked) [Example 5, N-(3,4-dimethylisoxazol-5-yl)-6-{[3-hydroxy-1-(4-methoxyphenyl)propyl]amino}pyridazine-3-carboxamide], the IC50 is reported as 69.5 nM.
Molecule O=C(NCCN1CCNC1=O)c1ccc(NC2Cc3ccccc3C2)nn1 [Example 6, 6-(2,3-dihydro-1H-inden-2-ylamino)-N-[2-(2-oxoimidazolidin-1-yl)ethyl]pyridazine-3-carboxamide] has an IC50 of 73.8 nM.
For O=C(NCCCn1ccnc1)c1ccc(NCc2cc(Cl)cc(Cl)c2)nn1 [Example 7, 6-[(3,5-dichlorobenzyl)amino]-N-[3-(1H-imidazol-1-yl)propyl]pyridazine-3-carboxamide], the IC50 was 89.2 nM.
In the case of Cc1noc(NC(=O)c2ccc(NC(C)c3ccc(Cl)cc3)nn2)c1C (centres unmarked) [Example 8, 6-{[1-(4-chlorophenyl)ethyl]amino}-N-(3,4-dimethyl-isoxazol-5-yl)pyridazine-3-carboxamide], the IC50 is reported as 100 nM.
Molecule Cc1ccc(F)c(CNc2ccc(C(=O)Nc3onc(C)c3C)nn2)c1F [Example 9, 6-[(2,6-difluoro-3-methylbenzyl)amino]-N-(3,4-dimethylisoxazol-5-yl)pyridazine-3-carboxamide] has an IC50 of 103 nM.
Cc1noc(NC(=O)c2ccc(NCc3cccc4ccccc34)nn2)c1C [Example 10, N-(3,4-dimethylisoxazol-5-yl)-6-[(1-naphthylmethyl)-amino]pyridazine-3-carboxamide] gave an IC50 of 114 nM.
In the case of Cc1noc(NC(=O)c2ccc(NCc3cccc(Cl)c3Cl)nn2)c1C [Example 11, 6-[(2,3-dichlorobenzyl)amino]-N-(3,4-dimethyl-isoxazol-5-yl)pyridazine-3-carboxamide], the IC50 is reported as 248 nM.
Work on Cc1noc(NC(=O)c2ccc(NC3CCN(Cc4ccccc4)C3)nn2)c1C (centres unmarked) [Example 12, 6-[(1-benzylpyrrolidin-3-yl)amino]-N-(3,4-dimethyl-isoxazol-5-yl)pyridazine-3-carboxamide] yielded an IC50 of 357 nM.
In the case of Cc1cc(NC(=O)c2ccc(NC(CO)Cc3ccc(Cl)cc3)nn2)n(C)n1 (centres unmarked) [Example 13, 6-{[1-(4-chlorobenzyl)-2-hydroxyethyl]amino}-N-(1,3-dimethyl-1H-pyrazol-5-yl)pyridazine-3-carboxamide], the IC50 is reported as 507 nM.
Cc1onc(-c2ccccc2)c1CNc1ccc(C(=O)NCc2cc(F)cc(F)c2)nn1 [Example 14, N-(3,5-difluorobenzyl)-6-{[(5-methyl-3-phenylisoxazol-4-yl)methyl]amino}pyridazine-3-carboxamide] gave an IC50 of 646 nM.
